Reference: patent US6576662B2, “Compounds having anticancer activity : process for their preparation and pharmaceutical compositions containing them” (Dr. Reddy's Laboratories Limited, priority 2000, dated 2003)

Key:
Human lymphocytes = experiment: Lymphocyte proliferation, tritiated thymidine incorporation; assay type: cell-based; conditions: Concentration 1 μM; human lymphocytes with Phytohemagglutitin A
Method: Human lymphocytes were isolated from whole blood by using Ficoll Hypaque Plus (Amersham). On day one, 1 million lymphocytes were seeded into each well of 96 well plate in 100 μL volume of RPMI 1640 medium containing 10% FCS and Phytohemagglutitin A at 1 μg/well concentration. Plates were incubated at 37° C. in CO2 incubator for 24 h. Test compounds at various concentrations were added to test wells and only medium with vehicle was added to control wells. After 48 h of incubation […] of tritiated thymidine was added to each well. After 24 h of thymidine addition the cells were harvested and the incorporated radioactivity was determined. Stimulation Index (SI) was calculated using the formula, [formula]
A^T=Average CPM of treated wells,
A^C=Average CPM of control wells.

Compound | melting point [°C] | Stimulation Index (SI) (Human lymphocytes)
C=C1CCC2[C@](C)(CO)[C@H](O)CC[C@]2(C)[C@H]1CC([Se]c1ccccc1)C1=CCOC1=O (stereo partly drawn) | 186 | 
C=C1CCC2[C@]3(C)COC(C)(c4ccccc4)OC3CC[C@]2(C)[C@H]1CC(NC(C(=O)OC)c1ccccc1)C1=CCOC1=O (stereo partly drawn) [Example 2, 14-Deoxy-12-(O-methylphenylglycino)-3,19-O-(1-phenylethylidene) androgrpaholide] | 91 | 
C=C1CCC2C(C)(COC(C)=O)C(OC(C)=O)CCC2(C)C1CC(NC(Cc1ccccc1)C(=O)OC)C1=CCOC1=O (stereo not drawn) [Example 6, 3,19-Diacetyl-14-deoxy-12-(O-methylphenylalano)andrographolide] |  | 92
C=C1CCC2C(C)(COC(C)=O)C(OC(C)=O)CCC2(C)C1CC(NC(CC[Se]C)C(=O)OC)C1=CCOC1=O (stereo not drawn) [Example 12, 3,19-Diacetyl-14-deoxy-12-(O-methylselenomethionino)andrographolide] |  | 40
C=C1CCC2[C@](C)(CO)C(O)CC[C@]2(C)[C@H]1CC(NC(C(=O)OC)c1ccccc1)C1=CCOC1=O (stereo partly drawn) [Example 19, 14-Deoxy-12-(O-methylphenylglycino)andrographolide] | 68 | 
C=C1CCC2[C@]3(C)COC(C)(C)OC3CC[C@]2(C)[C@H]1CC(NC(Cc1ccccc1)C(=O)OC)C1=CCOC1=O (stereo partly drawn) [Example 20, 14-Deoxy-3,19-O-isopropylidene-12-(methylphenylalanino)andrographolide] | 57 | 
C=C1CCC2[C@]3(C)COC(c4ccccc4)OC3CC[C@]2(C)[C@H]1CC(NCc1ccccc1)C1=CCOC1=O (stereo partly drawn) [Example 24, 3,19-O-Benzylidene-12-(N-benzylamino)-14-deoxy andrographolide] | 172 to 173 | 
C=C1CCC2[C@](C)(CO)[C@H](O)CC[C@]2(C)[C@H]1CC(Nc1cccc(C)c1C)C1=CCOC1=O (stereo partly drawn) [Example 28, 1-(2,3-Dimethylanilino)-14-deoxy andrographolide] |  | 40
C=C1CCC2[C@](C)(CO)C(O)CC[C@]2(C)[C@H]1CC(Nc1ccc(OC)c(OC)c1)C1=CCOC1=O (stereo partly drawn) [Example 37, 14-Deoxy-12-(3,4-dimethoxyanilino)andrographolide] | 225 to 230 | 
C=C1CCC2[C@]3(C)COC(C)(C)OC3CC[C@]2(C)[C@H]1CC(Nc1cccc(C)c1C)C1=CCOC1=O (stereo partly drawn) [Example 38, 14-Deoxy-3,19-O-isopropylidene-12-(2,3-dimethylanilino)andrographolide] | 192.5 | 
C=C1CCC2[C@]3(C)COC(c4ccccc4)OC3CC[C@]2(C)[C@H]1CC(Nc1cccc(C)c1C)C1=CCOC1=O (stereo partly drawn) [Example 40, 3,19-O-Benzylidene-14-deoxy-12-(2,3-dimethylanilino)andrographolide] | 118 | 
C=C1CCC2[C@](C)(CO)[C@H](O)CC[C@]2(C)[C@H]1CC(Nc1cc[nH]c(=O)n1)C1=CCOC1=O (stereo partly drawn) [Example 49, 14-Deoxy-12-[N-(1,2-dihydro-2-pyrimidinone)amino]andrographolide] | 163 | 
C=C1CCC2[C@](C)(CO)[C@H](O)CC[C@]2(C)[C@H]1CC(C1=CCOC1=O)n1ccc(=O)[nH]c1=O (stereo partly drawn) [Example 50, 14-Deoxy-12-(N^1-uracil)andrographolide] | 164 | 
C=C1CCC2[C@](C)(CO)[C@H](O)CC[C@]2(C)[C@H]1CC(C1=CCOC1=O)n1cc(Br)c(=O)[nH]c1=O (stereo partly drawn) [Example 52, 14-Deoxy-12-[N^1-(5-bromouracil)]andrographolide] | 185 | 
C=C1CCC2[C@](C)(CO)[C@H](O)CC[C@]2(C)[C@H]1CC(C1=CCOC1=O)n1cc(I)c(=O)[nH]c1=O (stereo partly drawn) [Example 53, 14-Deoxy-12-[N^1-(5-iodouracil)]andrographolide] | 187 to 188 | 
C[C@]1(CO)C2CC[C@]3(CO3)[C@H](CC(Sc3ccccc3)C3=CCOC3=O)[C@@]2(C)CC[C@H]1O (stereo partly drawn) [Example 54, 14-Deoxy-8,17-epoxy-12-phenylthio andrographolide] | 90 | 
C=C1CCC2[C@](C)(CO)[C@H](O)CC[C@]2(C)[C@H]1CC(Sc1ccccc1)C1=CCOC1=O (stereo partly drawn) [Example 63, 14-Deoxy-12-phenylthio andrographolide] | 105 | 59
C=C1CCC2[C@](C)(CO)[C@H](O)CC[C@]2(C)[C@H]1CC(SCC)C1=CCOC1=O (stereo partly drawn) [Example 64, 14-Deoxy-12-ethylthio andrographolide] | 160 | 
C=C1CCC2[C@]3(C)COC(C)(c4ccccc4)OC3CC[C@]2(C)[C@H]1CC(Sc1ccccc1)C1=CCOC1=O (stereo partly drawn) [Example 67, 14-Deoxy-3,19-O-(1-phenylethylidene)-12-phenylthio andrographolide] | 154.1 | 
C=C1CCC2[C@]3(C)COC(C)(c4ccccc4)OC3CC[C@]2(C)[C@H]1CC(SCC)C1=CCOC1=O (stereo partly drawn) [Example 68, 14-Deoxy-3,19-O-(1-phenylethylidene)-12-ethylthio andrographolide] | 122.5 to 125 | 
C=C1CCC2[C@]3(C)COC(c4ccccc4)OC3CC[C@]2(C)[C@H]1CC(Sc1ccccc1)C1=CCOC1=O (stereo partly drawn) [Example 69, 3,19-O-Benzylidene-14-deoxy-12-phenylthio andrographolide] | 74 to 76 | 
C=C1CCC2[C@](C)(COC(C)=O)C(OC(C)=O)CC[C@]2(C)[C@H]1CC(OC(C)=O)C1=CCOC1=O (stereo partly drawn) [Example 74, 12-Acetoxy-3,19-diacetyl-14-deoxy andrographolide] | 152.7 | 
CCC(=O)OC[C@@]1(C)C2CC[C@]3(CO3)[C@H](CC(OC(=O)CNC(=O)OC(C)(C)C)C3=CCOC3=O)[C@@]2(C)CC[C@H]1OC(=O)CC (stereo partly drawn) [Example 77, 12-(N-Bocglycinyloxy)-14-deoxy-8,17-epoxy-3,19-dipropionyl andrographolide] | 80 | 
